Columns and labels:
mu-opioid receptor [1] = biological target: T1, mu-opioid receptor (Homo sapiens, UniProt P35372); experiment: GTPγS functional binding assay (DAMGO-stimulated); assay type: biochemical; conditions: mu-opioid receptor expressing membranes, agonist DAMGO 10 nM, 35S-GTPγS binding
Description: GTPγS Functional Binding Assays
Mu-, kappa- or delta-opioid receptor expressing membranes (5-20 μg/well) were suspended in 50 mM HEPES buffer pH 7.6 containing 3 mM MgCl2, 120 mM NaCl, 150 pM GTPγS, 10 μg/mL saponin and 3 μM GDP (μ-opioid receptor assay) or 5 μM GDP (κ- and δ-opioid receptor assay) and were pre-incubated on 96-well plates with test compound or vehicle (1% DMSO) in a total volume of 160 μL for 10 min at rt (22° C.). Specific agonists DAMGO (10 nM final concentration), U-50,488 (30 nM final concentration) or SNC-80 (10 nM final concentration) were added respectively and the plates pre-incubated for a further 15 min at rt (22° C.) ^35S-GTPγS at a final concentration in the assay of 150 pM was then added to provide a total volume per well of 200 μL and the plates incubated for 45 min at 30° C. The contents of the wells were filtered and washed 5 times with chilled 50 mM Tris buffer pH 7.6 through H2O pre-soaked GF/B filters using a Perkin Elmer Filtermate. The filters were dried and upon application of scintillant the bound radioactive content for each well determined by scintillation counting in a Wallac TriLux Microbeta scintillation counter. Non-specific binding was determined in the presence of 10 μM GTPγS. IC50 values were determined by plotting log concentration test compound against percentage increase over non-stimulated ^35S-GTPγS binding.

mu-opioid receptor [2] = biological target: T1, mu-opioid receptor; experiment: Competition binding assay (3H-DAMGO); conditions: mu-opioid receptor expressing membranes, 0.5 nM 3H-DAMGO
Description: Competition Binding Assays
Mu-, kappa- or delta-opioid receptor expressing membranes (5-15 μg/well) were suspended in 50 mM Tris buffer pH 7.6 containing 5 mM MgCl2 and were incubated on 96-well plates with test compound or vehicle (1% DMSO) and either 0.5 nM ^3H-DAMGO, 0.8 nM ^3H-U-69,595 or 1.1 nM ^3H-DPDPE respectively in a total volume of 200 μL for 90 min at rt (22° C.). The contents of the wells were filtered and washed 5 times with chilled 50 mM Tris buffer pH 7.6 through H2O pre-soaked GF/B filters using a Perkin Elmer Filtermate. The filters were dried and upon application of scintillant the bound radioactive content for each well determined by scintillation counting in a Wallac TriLux Microbeta scintillation counter. Non-specific binding was determined in the presence of 2 μM Naloxone. IC50 values were determined by plotting log concentration test compound against specific binding and subsequent Ki values calculated.

T1 sequence (P35372 whole entry, species assumed): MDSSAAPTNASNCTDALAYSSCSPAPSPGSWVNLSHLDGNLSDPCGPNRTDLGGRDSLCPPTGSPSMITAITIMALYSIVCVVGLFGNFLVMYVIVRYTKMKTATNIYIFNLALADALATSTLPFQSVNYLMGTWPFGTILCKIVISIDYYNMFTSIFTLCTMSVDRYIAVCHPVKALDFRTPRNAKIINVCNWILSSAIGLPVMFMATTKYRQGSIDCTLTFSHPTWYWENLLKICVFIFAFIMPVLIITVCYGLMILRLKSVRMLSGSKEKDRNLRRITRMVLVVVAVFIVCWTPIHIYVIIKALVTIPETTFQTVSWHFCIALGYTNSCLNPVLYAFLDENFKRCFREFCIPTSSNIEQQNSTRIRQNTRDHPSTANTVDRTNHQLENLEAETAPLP

| IC50 (mu-opioid receptor [1]) | Ki (mu-opioid receptor [2]) | SMILES |
| --- | --- | --- |
| < 0.1 µM | < 0.1 µM | Cc1cc(CNCCC2C3CC4CC(C3)CC2C4)ccc1-c1cccc(C(N)=O)c1 (stereo not shown) [Example 46, 4′-[(2-Adamantan-2-yl-ethylamino)methyl]-2′-methylbiphenyl-3-carboxylic acid amide] |
| < 0.1 µM | < 0.1 µM | NC(=O)c1cccc(-c2ccc(CNCCC3C4CC5CC(C4)CC3C5)cn2)c1 (stereo not shown) [Example 84, 3-{5-[(2-Adamantan-2-ylethylamino)methyl]-pyridin-2-yl}benzamide] |

Source: patent US8063247B2, “Bicyclic aryl and heteroaryl receptor modulators” (Prosidion Limited, priority 2007, dated 2011)
